Consider three compounds from patent US20130059879A1, “Small Molecule Inhibitors of PFKFB3 and Glycolytic Flux and Their Methods of Use as Anti-Cancer Therapeutics” (UNIVERSITY OF LOUISVILLE RESEARCH FOUNDATION, INC., priority 2010, published 2013).

Structures are written as SMILES. In brackets after ≈: the same amount, converted by molar mass. Read-outs that look alike come from different tables or passages of the source.

Series [1] is described as follows: Microsomal stability in human liver microsomes. In kind it is in vitro ADME. The procedure: Microsomal stability in vitro in different biologic media (liver microsomes, S9 fraction, hepatocytes) and species is ascertained to evaluate the rate at which a compound undergoes metabolism in the experimental in vitro conditions. Results for some compounds of the invention after a 60 minutes incubation period in human liver microsomes are shown in the Table 6 below. […] Experimental conditions are briefly described here: the stability in human liver microsomes of several compounds was done over […] at 37° C. using pooled mixed gender human liver microsomes. These liver microsomes were prepared at 1.0 mg/ml of microsomal protein in a 100 mM potassium phosphate pH 7.4 buffer with 1 mM NADPH. The media was incubated at 37° C. with the compound in solution in DMSO. The concentration of the compound was followed by LC/MS-MS as a function of time. Samples were assayed at t=0, 15, 30, and 60 minutes. Testosterone was used as a positive control. The same experiment was performed with mouse, rat or dog liver microsomes instead of human liver microsomes.
For orientation: Liver microsomes are a subcellular fraction often used to study metabolism.

A further series concerns Jurkat. The series is described as follows: Cancer cell proliferation, Alamar Blue assay, 72 hours. Particulars: Homo sapiens, Jurkat. In kind it is cell-based. Here is the method:
(§1) The ability of the compounds described herein to kill or inhibit the proliferation of cancer cells was measured using either the MTT assay, or the Alamar Blue assay, or the Cell Titer Glow® assay using 48 or 72 hours exposure. […] The procedures are briefly described below. Cells of the desired tumor cell line were plated at 2×10^5 cells/ml in 96 well plates. Twice the indicated concentrations of the compounds of the invention were added to cells the following day in an equal volume of media. 72 hours later, cells were lysed and subjected to ATP determination using the CellTiter Glo-Luminescent Cell Viability Assay kit (Promega, Madison, Wis.). Experiments were done in triplicate. When using the MTT assay or the Alamar blue assay, the experimental conditions are essentially similar; at the end of the incubation period, 20 microliters of the MTT solution is added per well and the samples are incubated for an additional four hours, rinsed, and the absorbance at 570 nm measured. […] Table 2 lists the IC50 values for the compounds of the invention in several cell lines including Jurkat, Calu-6, NCI-H82, U937, HCT-116, and MDA-MB-231 cancer cell lines.
Background: Resazurin is reduced to fluorescent resorufin, in cell work by metabolically active cells.

Another series relates to NCI-H82. Described as above. In kind it is cell-based. As to conditions: Homo sapiens, NCI-H82, read-out: IC50 NCl-H82. The procedure:
as §1

In another series the test system is U937. The description is as above. In kind it is cell-based. Particulars: Homo sapiens, U-937. The procedure:
as §1

For a further series, the system named is MDA-MB-231. Described as above. Type of series: cell-based. Particulars: Homo sapiens. The procedure:
as §1

For a further series, the system named is HCT-116. The series is described as above. Type of series: cell-based. Particulars: Homo sapiens, HCT-116. The procedure:
as §1

For another series, the system named is Calu-6. The series is described as above. As to conditions: Homo sapiens, Calu-6. Type of series: cell-based. Here is the method: as §1
The target in another series is T1, PFKFB3 (Homo sapiens, UniProt Q16875).
T1 construct: GST
The series is described as follows: Inhibition of recombinant PFKFB3 kinase activity (ADP Glow assay). In kind it is biochemical. As to conditions: 250 nM analog concentration; read-out: % Inhibition of PFKFB3 Enzymatic Activity. The procedure:
PFKFB3 was prepared by expression in E. coli and purified by GST column and column chromatography. […] The recombinant protein was pure and active as determined by the results of a kinase activity assay commercially available (such as ADP Glow® assay, […]). The same assay was used to determine the inhibition of the protein and the results are shown in Table 5 below (IC50 values or percent inhibition at a fixed concentration). Results confirmed that the compounds of the invention have low nanomolar IC50 values, interacting with PFKFB3 and inhibiting its enzymatic activity.

A further series in a line: Pharmacokinetics in mice. In kind it is in vivo, Balbc mice. Here is the method:
The pharmacokinetic parameters for several compounds were determined in mice following IV (intravenous), IP (intraperitoneal), or PO (per os) administration, as well as in rats and dogs. A typical study design includes six Balbc male mice 7 to 8 weeks old. For instance, a dose of 10 mg/kg was administered IV using a 5% DMS0/90% Captisol (20% in water) solution or other pharmaceutically acceptable parenteral and oral formulations. Blood samples were collected at different intervals. Plasma samples were extracted and analyzed using an LC-MS/MS method. Similar protocols were used for the rats (Sprague Dawley rats) or dogs (beagles) PK studies; in the case of dogs PK studies, the number of animals per group was three.
PFK-065 was dosed at 10 mg/kg in male Balbc mice; PFK-095 was dosed at 10 mg/kg in male Sprague Dawley rats; and PFK-112 dosed at 6 mg/kg in male beagle dogs.

A short description of series [2]: Cell permeability in Caco2 monolayers. As to conditions: human, Caco-2, Caco2 cells, pH 7.4. Type of series: in vitro ADME. From the text:
The determination of the permeability in Caco2 or MDR1-MDCK cells is widely used when screening compounds to assess cell permeability, intestinal drug transport and predict absorption rates and to ascertain if a compound might be a Pgp substrate and have cross the blood brain barrier. […] Comparison of the apical to basal (A-B) and basal to apical (B-A) values show if a compound is actively effluxed out the cells and if it is a Pgp substrate. […] Briefly, cell permeability and transport mechanisms in Caco-2 and MDR1-MDCK monolayers experiments were performed in triplicate in the apical-to-basolateral and basolateral-to-apical direction using Transwell wells containing either Caco-2 or MDR1-MDCK monolayers. A modified Hanks buffer pH 7.4 was used in both reservoir and receiver wells with the addition of 1% BSA in the receiver side. Confluent monolayers were used and their integrity was verified using reference compounds (Atenolol as a low permeability reference compound and Propanolol as a high permeability reference compound). A sample in the basolateral and apical sides was taken after 2 hours and the concentration measured by LC/MS-MS.
(Caco-2 monolayers are a common model of the intestinal barrier.)

The subject of a further series is Jurkat cells. In words: Inhibition of 14C-2-deoxyglucose uptake. As to conditions: Homo sapiens, 3 hours. Type of series: cell-based. The procedure:
Inhibition of PFKFB3 results in inhibiting glycolysis. Several feedback or feedforward activation and inhibition mechanisms exist so that, by a feedback mechanism, inhibiting the activity of PFKFB3 may inhibit glucose uptake by cells. An assay was developed to determine if there was inhibition of glucose uptake following exposure to the compounds on the invention. Briefly, Jurkat cells were plated at 1×10^5/mL in RPM′ 1640 supplemented with 10% fetal bovine serum and 50 μg/mL gentamicin sulfate. Cells were immediately treated with vehicle or 5 μmol/L of the compound of the invention for 3 hours and subsequently placed in glucose-free RPMI 1640 for 30 min. ^14C-2-deoxyglucose (0.25 μCi/mL; Perkin Elmer) was added for an additional 60 min and cells were then washed three with ice-cold RPMI 1640 containing no glucose. Cell lysates were collected in 500 μL of 0.1% SDS, and scintillation counts (counts/min) were measured on 400 μL of lysate. Counts were normalized to protein concentration.

Series [3] can be described thus: Solubility in solvents and excipients, 1 hour at room temperature, HPLC. In kind it is physicochemical. Particulars: thermodynamic from solid. Here is the method: Chemical properties of the compounds of the invention were investigated, including the solubility in several solvents and pharmaceutically accepted excipients. […] Briefly, selected compounds of the invention are dissolved in a small volume of the solvents/excipients of interest at room temperature over 1 hour in typically 1 ml and the concentration is measured by HPLC after filtration.

Setting [4] is: 60 min incubation, 1.0 mg/ml microsomal protein, 1 mM NADPH, 37° C.
[5] abbreviates: mouse, plasma, IV 10 mg/kg, male Balbc mice.
Setting [6] is: aqueous with cosolvent or surfactant or cyclodextrin, Cre:EtOH:Saline 5:5:90 mixture, 1 hour at room temperature, read-out: Solubility Cre:EtOH:Saline.
[7] abbreviates: ethanol, organic solvent or mixture, EtOH, 1 hour at room temperature, read-out: Solubility EtOH.
[8] abbreviates: organic solvent or mixture, 1:1 cremophor EL-P:ethanol mixture, 1 hour at room temperature, read-out: Solubility Cre:EtOH.
[9] abbreviates: organic solvent or mixture, Acetone, 1 hour at room temperature, read-out: Solubility Acetone.
The mark [10] stands for this setting: organic solvent or mixture, Cremophor, 1 hour at room temperature, read-out: Solubility Cremophor.
The mark [11] stands for this setting: organic solvent or mixture, DCM, 1 hour at room temperature, read-out: Solubility DCM.
Setting [12] is: organic solvent or mixture, Tween 80, 1 hour at room temperature, read-out: Solubility Tween 80.
The mark [13] stands for this setting: organic solvent or mixture, Tween80:EtOH 6:4 mixture, 1 hour at room temperature, read-out: Solubility Twee80:EtOH.

T1 sequence (Q16875 whole entry, species assumed): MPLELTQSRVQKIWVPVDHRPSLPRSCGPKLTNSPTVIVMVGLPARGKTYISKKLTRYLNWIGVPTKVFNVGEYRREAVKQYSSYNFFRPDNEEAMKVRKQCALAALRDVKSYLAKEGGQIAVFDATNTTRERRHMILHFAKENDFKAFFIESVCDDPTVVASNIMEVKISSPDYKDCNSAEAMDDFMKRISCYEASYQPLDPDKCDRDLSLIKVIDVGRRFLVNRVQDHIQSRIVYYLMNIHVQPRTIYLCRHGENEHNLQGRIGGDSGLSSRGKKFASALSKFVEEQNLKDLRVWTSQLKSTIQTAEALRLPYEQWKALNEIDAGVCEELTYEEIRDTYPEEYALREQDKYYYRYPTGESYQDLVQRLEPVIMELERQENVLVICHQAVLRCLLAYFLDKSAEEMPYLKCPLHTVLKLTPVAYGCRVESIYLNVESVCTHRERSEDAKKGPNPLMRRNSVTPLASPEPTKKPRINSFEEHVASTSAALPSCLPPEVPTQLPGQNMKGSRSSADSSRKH

What is called IC50 is the concentration needed to halve the response being measured. The term inhibition denotes the percentage by which the read-out fell short of the control. The AUC(0-inf) is the area under the concentration-time curve extrapolated to infinity. A low value points to less exposure. What is called Cmax is the maximum level reached in the sampled fluid or tissue. Broadly, the Vd is a proportionality between amount in the body and measured concentration, not a real space. High values mean extensive tissue distribution, low ones confinement near the circulation. As usually defined, the Papp A→B is the apparent permeability from the apical to the basolateral side of a cell layer. The low end stands for poor permeation, the high end for ready permeation. A word on the Papp B→A: it is how fast a substance crosses the layer from the basolateral side. For the compound `O=C(c1ccccc1)c1cc2c(ccc3ccccc32)[nH]1` [ACT-PFK-065, (3H-Benzo[e]indol-2-yl)-phenyl-methanone], the “HLM, Mean metabolized (%)” value in series [1] (0 min) is 0.0%; in series [1] (setting [4]), 93%. For the same compound, the half-inhibitory concentration (IC50) in the series with Jurkat amounted to 775 nM; in the series on NCI-H82, 283 nM; in the series with U937 it was 165 nM; with MDA-MB-231, 625 nM; with HCT-116, 1310 nM; with Calu-6, 267 nM. Moreover, the inhibition at 0.25 µM on PFKFB3 was 13.5%. This compound yielded a T1/2b in “Pharmacokinetics in mice” (IV 10 mg/kg, male Balbc mice) of 2.1 h. In “Pharmacokinetics in mice” (setting [5]), this compound came in with an AUC(0-inf) of 2630 ng·h/mL. In addition, the maximum concentration (Cmax) in the series “Pharmacokinetics in mice” (setting [5]) came out at 4110 ng/mL. In “Pharmacokinetics in mice” (setting [5]), this compound gave a Vd of 11.2 L/kg. Besides, in “Pharmacokinetics in mice” (oral bioavailability, Balbc mice, PO 20 mg/kg vs IV 10 mg/kg), the “% F (from PO group)” value stood at 25%. This compound also had a Papp A→B at 2 h in [2] (apical to basal) of 10.3 ×10⁻⁶ cm/s. The compound further yielded a Papp B→A at 2 h in [2] (basal to apical) of 5.9 ×10⁻⁶ cm/s.

Usually solubility stands for the concentration that dissolves in the medium under given conditions. As for `COc1cccc(C(=O)c2cc3c(ccc4ccccc43)[nH]2)c1` [ACT-PFK-096, (3H-Benzo[e]indol-2-yl)-(3-methoxy-phenyl)-methanone], the entries for the “HLM, Mean metabolized (%)” value in [1] (0 min) and in [1] (setting [4]) were 0.0% and 99%, respectively. For the same compound, the IC50 came out at 1500 nM in the series on Jurkat; 155 nM in the series on NCI-H82; 14 nM with U937; 695 nM in the series with HCT-116; 20 nM in the series on Calu-6. The same compound had an inhibition at 5 µM in the series with Jurkat cells of 29%. Moreover, the solubility at 1 h in series [3] (setting [6]) was determined as 1700 µg/mL (≈ 5.64 mM); in series [3] (setting [7]), 2800 µg/mL (≈ 9.29 mM); in [3] (setting [8]), 29700 µg/mL (≈ 98.6 mM); in series [3] (setting [9]), 25800 µg/mL (≈ 85.6 mM); in series [3] (setting [10]), 1200 µg/mL (≈ 3.98 mM); in series [3] (setting [11]), 8900 µg/mL (≈ 29.5 mM). For the same compound, the solubility at 1 h worked out at 1800 µg/mL (≈ 5.97 mM) in [3] (setting [12]) and 18700 µg/mL (≈ 62.1 mM) in series [3] (setting [13]). The inhibition at 0.25 µM at PFKFB3 amounted to 0%.

Turning to `COc1cccc(C(=O)c2cc3c(cc(F)c4ccccc43)[nH]2)c1` [ACT-PFK-116, (5-Fluoro-3H-benzo[e]indol-2-yl)-(3-methoxy-phenyl)-methanone], the results for the “HLM, Mean metabolized (%)” value in series [1] (0 min) and in series [1] (setting [4]) were 0.0% and 45.8%, respectively. The half-maximal inhibitory concentration (IC50) in the series on Jurkat worked out at 125 nM; with NCI-H82, 205 nM; in the series on U937 it was 30 nM; with MDA-MB-231, 563 nM; in the series on HCT-116, 235 nM; in the series on Calu-6 it was 80 nM. This compound had an inhibition at 5 µM with Jurkat cells of 0%. In addition, the solubility at 1 h was determined as 700 µg/mL (≈ 2.19 mM) in series [3] (setting [6]); 1300 µg/mL (≈ 4.07 mM) in [3] (setting [7]); 8600 µg/mL (≈ 26.9 mM) in [3] (setting [8]); 6200 µg/mL (≈ 19.4 mM) in series [3] (setting [9]); 14400 µg/mL (≈ 45.1 mM) in series [3] (setting [10]); 6000 µg/mL (≈ 18.8 mM) in series [3] (setting [11]). In addition, the solubility at 1 h in [3] (setting [12]) came to 15500 µg/mL (≈ 48.5 mM); in series [3] (setting [13]) it was 10200 µg/mL (≈ 31.9 mM). The inhibition at 0.25 µM at PFKFB3 worked out at 34.2%.
